Literature values in PMC2119397 (The Journal of Experimental Medicine, 1992).
Where two headings read alike, the source gives them in different places.

Test system: DR1

Sequence	DR1 binding (in words)	DR1 binding (in words) (ref Sinigaglia, F., unpublished observation)
PKYVKQNTLKLAT [HA 307-319]	DR1 binding	–
TT 830-843: DR1-binding synthetic peptide of tetanus toxoid (QYIKANSKFIGITE; UniProt P04958 830-843, looked up, fragment)	DRl-binding	–
NALYKMNAVAKAA [NNX 83-91]	–	DR1 binding
